Assay results as given in ChEMBL document CHEMBL1141758, “Gesashidine A, a beta-carboline alkaloid with an imidazole ring from a Thorectidae sponge” (J Nat Prod, 2005).
The source made the active and inactive calls. The rule behind the calls is not given here.

How the values were obtained:
Micrococcus luteus = test: Antimicrobial activity against Micrococcus luteus; assay type: functional
KB = test: Cytotoxicity against human KB cells; assay type: functional, cell-based
L1210 = test: Cytotoxicity against mouse L1210 cells; assay type: functional, cell-based

SMILES | Activity (Micrococcus luteus) | IC50 (KB) [µg/mL] | MIC (Micrococcus luteus) [µg/mL] | IC50 (L1210) [µg/mL]
CSc1c(C(=O)c2nc(C(=O)[O-])cc3c2[nH]c2ccc(O)cc23)n(C)c[n+]1C | inactive |  |  | 
CSc1c(Cc2nc(C(=O)[O-])cc3c2[nH]c2ccc(O)cc23)n(C)c[n+]1C | inactive |  |  | 
CSc1c(Cc2nccc3c2[nH]c2ccc(O)cc23)n(C)c[n+]1C [GESASHIDINE A] |  | > 10 | 16.6 | > 10
